Reference: ChEMBL document CHEMBL4312037, “Fragment hopping-based discovery of novel sulfinylacetamide-diarylpyrimidines (DAPYs) as HIV-1 nonnucleoside reverse transcriptase inhibitors” (Eur J Med Chem, 2020)

Tested on: not listed separately
Test: Cytotoxicity against human MT4 cells assessed as reduction in cell viability incubated for 5 days by MTT assay
Type: cell-based
Conditions: not given

| Compound | CC50 at 120 h |
| --- | --- |
| COc1cc2nc([S+]([O-])CC(=O)Nc3ccc(C(F)(F)F)cc3)nc(Nc3c(C)cc(/C=C/C#N)cc3C)c2cc1OC (centres undefined) | 52.2 µM |
| COc1cc2nc(SCC(=O)Nc3ccc(C(F)(F)F)cc3)nc(Nc3c(C)cc(/C=C/C#N)cc3C)c2cc1OC | > 211 µM |
| COc1cc2nc(SCC(=O)Nc3ccc(S(N)(=O)=O)cc3)nc(Nc3c(Cl)cc(/C=C/C#N)cc3Cl)c2cc1OC | 116 µM |
| COc1cc2nc(SCC(=O)Nc3cccc(S(N)(=O)=O)c3)nc(Nc3c(Cl)cc(/C=C/C#N)cc3Cl)c2cc1OC | > 194 µM |
| COc1cc2nc(SCC(=O)Nc3cccc(Cl)c3)nc(Nc3c(Cl)cc(/C=C/C#N)cc3Cl)c2cc1OC | > 208 µM |
| COc1cc2nc([S+]([O-])CC(=O)Nc3cccc(S(N)(=O)=O)c3)nc(Nc3c(Cl)cc(/C=C/C#N)cc3Cl)c2cc1OC (centres undefined) | 67.8 µM |
| COc1cc2nc([S+]([O-])CC(=O)Nc3cccc(F)c3)nc(Nc3c(Cl)cc(/C=C/C#N)cc3Cl)c2cc1OC (centres undefined) | 9.55 µM |
| COc1cc2nc(SCC(=O)Nc3cc([N+](=O)[O-])ccc3F)nc(Nc3c(Cl)cc(/C=C/C#N)cc3Cl)c2cc1OC | > 199 µM |
| COc1cc2nc([S+]([O-])CC(=O)Nc3ccccc3F)nc(Nc3c(Cl)cc(/C=C/C#N)cc3Cl)c2cc1OC (centres undefined) | > 208 µM |
| COc1cc2nc([S+]([O-])CC(=O)Nc3ccc(F)cc3)nc(Nc3c(C)cc(/C=C/C#N)cc3C)c2cc1OC (centres undefined) | 27.4 µM |
| COc1cc2nc(SCC(=O)Nc3ccc(F)cc3)nc(Nc3c(C)cc(/C=C/C#N)cc3C)c2cc1OC | ≥ 150 µM |
| COc1cc2nc([S+]([O-])CC(=O)Nc3cccc(C(F)(F)F)c3)nc(Nc3c(Cl)cc(/C=C/C#N)cc3Cl)c2cc1OC (centres undefined) | 21.8 µM |
| COc1cc2nc([S+]([O-])CC(=O)Nc3cccc(Cl)c3)nc(Nc3c(Cl)cc(/C=C/C#N)cc3Cl)c2cc1OC (centres undefined) | 68.9 µM |
| COc1cc2nc([S+]([O-])CC(=O)Nc3ccc(Cl)cc3)nc(Nc3c(Cl)cc(/C=C/C#N)cc3Cl)c2cc1OC (centres undefined) | 14.4 µM |
| O=C1Nc2ccc(Cl)cc2[C@@](C#CC2CC2)(C(F)(F)F)O1 [EFAVIRENZ] | > 6.34 µM |
| Cc1cc(C#N)cc(C)c1Oc1nc(Nc2ccc(C#N)cc2)nc(N)c1Br [ETRAVIRINE] | > 4.59 µM |
| Cc1ccnc2c1NC(=O)c1cccnc1N2C1CC1 [NEVIRAPINE] | > 15 µM |

Tested on: not listed separately
Test: in vitro
Conditions: human, MT4 cells; MT4 cells infected with HIV1 3B K103N mutant
Description: Selectivity index, ratio of CC50 for cytotoxicity against human MT4 cells to EC50 for antiviral activity against HIV1 3B harbouring NNRTI K103N mutant infected in human MT4 cells

| Compound | selectivity ratio |
| --- | --- |
| COc1cc2nc([S+]([O-])CC(=O)Nc3ccc(C(F)(F)F)cc3)nc(Nc3c(C)cc(/C=C/C#N)cc3C)c2cc1OC (centres undefined) | 210 |
| COc1cc2nc(SCC(=O)Nc3ccc(C(F)(F)F)cc3)nc(Nc3c(C)cc(/C=C/C#N)cc3C)c2cc1OC | > 87 |
| COc1cc2nc([S+]([O-])CC(=O)Nc3cccc(F)c3)nc(Nc3c(Cl)cc(/C=C/C#N)cc3Cl)c2cc1OC (centres undefined) | 137 |
| COc1cc2nc([S+]([O-])CC(=O)Nc3ccccc3F)nc(Nc3c(Cl)cc(/C=C/C#N)cc3Cl)c2cc1OC (centres undefined) | > 37 |
| COc1cc2nc([S+]([O-])CC(=O)Nc3ccc(F)cc3)nc(Nc3c(C)cc(/C=C/C#N)cc3C)c2cc1OC (centres undefined) | 833 |
| COc1cc2nc(SCC(=O)Nc3ccc(F)cc3)nc(Nc3c(C)cc(/C=C/C#N)cc3C)c2cc1OC | ≥ 159 |
| COc1cc2nc([S+]([O-])CC(=O)Nc3cccc(C(F)(F)F)c3)nc(Nc3c(Cl)cc(/C=C/C#N)cc3Cl)c2cc1OC (centres undefined) | 35 |
| COc1cc2nc([S+]([O-])CC(=O)Nc3cccc(Cl)c3)nc(Nc3c(Cl)cc(/C=C/C#N)cc3Cl)c2cc1OC (centres undefined) | 1000 |
| COc1cc2nc([S+]([O-])CC(=O)Nc3ccc(Cl)cc3)nc(Nc3c(Cl)cc(/C=C/C#N)cc3Cl)c2cc1OC (centres undefined) | 550 |

Tested on: not listed separately
Test: in vitro
Conditions: human, MT4 cells; MT4 cells infected with HIV1 3B
Description: Selectivity index, ratio of CC50 for cytotoxicity against human MT4 cells to EC50 for antiviral activity against HIV1 3B infected in human MT4 cells

| Compound | selectivity ratio |
| --- | --- |
| COc1cc2nc([S+]([O-])CC(=O)Nc3ccc(C(F)(F)F)cc3)nc(Nc3c(C)cc(/C=C/C#N)cc3C)c2cc1OC (centres undefined) | 116 |
| COc1cc2nc(SCC(=O)Nc3ccc(C(F)(F)F)cc3)nc(Nc3c(C)cc(/C=C/C#N)cc3C)c2cc1OC | > 40 |
| COc1cc2nc(SCC(=O)Nc3ccc(S(N)(=O)=O)cc3)nc(Nc3c(Cl)cc(/C=C/C#N)cc3Cl)c2cc1OC | < 1 |
| COc1cc2nc(SCC(=O)Nc3cccc(S(N)(=O)=O)c3)nc(Nc3c(Cl)cc(/C=C/C#N)cc3Cl)c2cc1OC | > 1 |
| COc1cc2nc(SCC(=O)Nc3cccc(Cl)c3)nc(Nc3c(Cl)cc(/C=C/C#N)cc3Cl)c2cc1OC | > 1 |
| COc1cc2nc([S+]([O-])CC(=O)Nc3cccc(S(N)(=O)=O)c3)nc(Nc3c(Cl)cc(/C=C/C#N)cc3Cl)c2cc1OC (centres undefined) | < 1 |
| COc1cc2nc([S+]([O-])CC(=O)Nc3cccc(F)c3)nc(Nc3c(Cl)cc(/C=C/C#N)cc3Cl)c2cc1OC (centres undefined) | 40 |
| COc1cc2nc(SCC(=O)Nc3cc([N+](=O)[O-])ccc3F)nc(Nc3c(Cl)cc(/C=C/C#N)cc3Cl)c2cc1OC | > 1 |
| COc1cc2nc([S+]([O-])CC(=O)Nc3ccccc3F)nc(Nc3c(Cl)cc(/C=C/C#N)cc3Cl)c2cc1OC (centres undefined) | > 12 |
| COc1cc2nc([S+]([O-])CC(=O)Nc3ccc(F)cc3)nc(Nc3c(C)cc(/C=C/C#N)cc3C)c2cc1OC (centres undefined) | 209 |
| COc1cc2nc(SCC(=O)Nc3ccc(F)cc3)nc(Nc3c(C)cc(/C=C/C#N)cc3C)c2cc1OC | ≥ 66 |
| COc1cc2nc([S+]([O-])CC(=O)Nc3cccc(C(F)(F)F)c3)nc(Nc3c(Cl)cc(/C=C/C#N)cc3Cl)c2cc1OC (centres undefined) | 17 |
| COc1cc2nc([S+]([O-])CC(=O)Nc3cccc(Cl)c3)nc(Nc3c(Cl)cc(/C=C/C#N)cc3Cl)c2cc1OC (centres undefined) | 220 |
| COc1cc2nc([S+]([O-])CC(=O)Nc3ccc(Cl)cc3)nc(Nc3c(Cl)cc(/C=C/C#N)cc3Cl)c2cc1OC (centres undefined) | 313 |

Tested on: Human immunodeficiency virus 1
Test: Antiviral activity against HIV1 3B harbouring NNRTI K103N mutant infected in human MT4 cells assessed as virus-induced cytopathic effect incubated for 5 days by MTT assay
Type: functional, organism-based
Conditions: Human immunodeficiency virus 1, 3B, MT4, 120 h

| Compound | EC50 |
| --- | --- |
| COc1cc2nc([S+]([O-])CC(=O)Nc3ccc(C(F)(F)F)cc3)nc(Nc3c(C)cc(/C=C/C#N)cc3C)c2cc1OC (centres undefined) | 0.249 µM |
| COc1cc2nc(SCC(=O)Nc3ccc(C(F)(F)F)cc3)nc(Nc3c(C)cc(/C=C/C#N)cc3C)c2cc1OC | 2.41 µM |
| COc1cc2nc([S+]([O-])CC(=O)Nc3cccc(F)c3)nc(Nc3c(Cl)cc(/C=C/C#N)cc3Cl)c2cc1OC (centres undefined) | 0.0696 µM |
| COc1cc2nc([S+]([O-])CC(=O)Nc3ccccc3F)nc(Nc3c(Cl)cc(/C=C/C#N)cc3Cl)c2cc1OC (centres undefined) | 5.66 µM |
| COc1cc2nc([S+]([O-])CC(=O)Nc3ccc(F)cc3)nc(Nc3c(C)cc(/C=C/C#N)cc3C)c2cc1OC (centres undefined) | 0.0329 µM |
| COc1cc2nc(SCC(=O)Nc3ccc(F)cc3)nc(Nc3c(C)cc(/C=C/C#N)cc3C)c2cc1OC | 0.942 µM |
| COc1cc2nc([S+]([O-])CC(=O)Nc3cccc(C(F)(F)F)c3)nc(Nc3c(Cl)cc(/C=C/C#N)cc3Cl)c2cc1OC (centres undefined) | 0.626 µM |
| COc1cc2nc([S+]([O-])CC(=O)Nc3cccc(Cl)c3)nc(Nc3c(Cl)cc(/C=C/C#N)cc3Cl)c2cc1OC (centres undefined) | 0.0687 µM |
| COc1cc2nc([S+]([O-])CC(=O)Nc3ccc(Cl)cc3)nc(Nc3c(Cl)cc(/C=C/C#N)cc3Cl)c2cc1OC (centres undefined) | 0.0263 µM |
| O=C1Nc2ccc(Cl)cc2[C@@](C#CC2CC2)(C(F)(F)F)O1 [EFAVIRENZ] | 0.124 µM |
| Cc1cc(C#N)cc(C)c1Oc1nc(Nc2ccc(C#N)cc2)nc(N)c1Br [ETRAVIRINE] | 0.0037 µM |
| Cc1ccnc2c1NC(=O)c1cccnc1N2C1CC1 [NEVIRAPINE] | ≥ 11.2 µM |

Tested on: Human immunodeficiency virus 1
Test: Antiviral activity against HIV1 3B infected in human MT4 cells assessed as virus-induced cytopathic effect incubated for 5 days by MTT assay
Type: functional, organism-based
Conditions: Human immunodeficiency virus 1, 3B, MT4, 120 h

| Compound | EC50 |
| --- | --- |
| COc1cc2nc([S+]([O-])CC(=O)Nc3ccc(C(F)(F)F)cc3)nc(Nc3c(C)cc(/C=C/C#N)cc3C)c2cc1OC (centres undefined) | 0.45 µM |
| COc1cc2nc(SCC(=O)Nc3ccc(C(F)(F)F)cc3)nc(Nc3c(C)cc(/C=C/C#N)cc3C)c2cc1OC | 5.28 µM |
| COc1cc2nc(SCC(=O)Nc3ccc(S(N)(=O)=O)cc3)nc(Nc3c(Cl)cc(/C=C/C#N)cc3Cl)c2cc1OC | > 116 µM |
| COc1cc2nc(SCC(=O)Nc3cccc(S(N)(=O)=O)c3)nc(Nc3c(Cl)cc(/C=C/C#N)cc3Cl)c2cc1OC | > 194 µM |
| COc1cc2nc(SCC(=O)Nc3cccc(Cl)c3)nc(Nc3c(Cl)cc(/C=C/C#N)cc3Cl)c2cc1OC | > 208 µM |
| COc1cc2nc([S+]([O-])CC(=O)Nc3cccc(S(N)(=O)=O)c3)nc(Nc3c(Cl)cc(/C=C/C#N)cc3Cl)c2cc1OC (centres undefined) | > 67.8 µM |
| COc1cc2nc([S+]([O-])CC(=O)Nc3cccc(F)c3)nc(Nc3c(Cl)cc(/C=C/C#N)cc3Cl)c2cc1OC (centres undefined) | 0.237 µM |
| COc1cc2nc(SCC(=O)Nc3cc([N+](=O)[O-])ccc3F)nc(Nc3c(Cl)cc(/C=C/C#N)cc3Cl)c2cc1OC | > 199 µM |
| COc1cc2nc([S+]([O-])CC(=O)Nc3ccccc3F)nc(Nc3c(Cl)cc(/C=C/C#N)cc3Cl)c2cc1OC (centres undefined) | 17 µM |
| COc1cc2nc([S+]([O-])CC(=O)Nc3ccc(F)cc3)nc(Nc3c(C)cc(/C=C/C#N)cc3C)c2cc1OC (centres undefined) | 0.131 µM |
| COc1cc2nc(SCC(=O)Nc3ccc(F)cc3)nc(Nc3c(C)cc(/C=C/C#N)cc3C)c2cc1OC | 2.28 µM |
| COc1cc2nc([S+]([O-])CC(=O)Nc3cccc(C(F)(F)F)c3)nc(Nc3c(Cl)cc(/C=C/C#N)cc3Cl)c2cc1OC (centres undefined) | 1.27 µM |
| COc1cc2nc([S+]([O-])CC(=O)Nc3cccc(Cl)c3)nc(Nc3c(Cl)cc(/C=C/C#N)cc3Cl)c2cc1OC (centres undefined) | 0.313 µM |
| COc1cc2nc([S+]([O-])CC(=O)Nc3ccc(Cl)cc3)nc(Nc3c(Cl)cc(/C=C/C#N)cc3Cl)c2cc1OC (centres undefined) | 0.0461 µM |
| O=C1Nc2ccc(Cl)cc2[C@@](C#CC2CC2)(C(F)(F)F)O1 [EFAVIRENZ] | 0.0038 µM |
| Cc1cc(C#N)cc(C)c1Oc1nc(Nc2ccc(C#N)cc2)nc(N)c1Br [ETRAVIRINE] | 0.0042 µM |
| Cc1ccnc2c1NC(=O)c1cccnc1N2C1CC1 [NEVIRAPINE] | 0.235 µM |
